# Measurements reported in PMC2225441, “Partial Restoration of Mutant Enzyme Homeostasis in Three Distinct Lysosomal Storage Disease Cell Lines by Altering Calcium Homeostasis” (PLoS Biology, 2008).
# Target: T1, L444P GC (Homo sapiens, UniProt P04062, L483P)
# T1 construct: homozygous L444P GC patient–derived fibroblasts; host or cells: homozygous L444P Gaucher patient skin fibroblasts
# T1 sequence (P04062 40-536 L483P): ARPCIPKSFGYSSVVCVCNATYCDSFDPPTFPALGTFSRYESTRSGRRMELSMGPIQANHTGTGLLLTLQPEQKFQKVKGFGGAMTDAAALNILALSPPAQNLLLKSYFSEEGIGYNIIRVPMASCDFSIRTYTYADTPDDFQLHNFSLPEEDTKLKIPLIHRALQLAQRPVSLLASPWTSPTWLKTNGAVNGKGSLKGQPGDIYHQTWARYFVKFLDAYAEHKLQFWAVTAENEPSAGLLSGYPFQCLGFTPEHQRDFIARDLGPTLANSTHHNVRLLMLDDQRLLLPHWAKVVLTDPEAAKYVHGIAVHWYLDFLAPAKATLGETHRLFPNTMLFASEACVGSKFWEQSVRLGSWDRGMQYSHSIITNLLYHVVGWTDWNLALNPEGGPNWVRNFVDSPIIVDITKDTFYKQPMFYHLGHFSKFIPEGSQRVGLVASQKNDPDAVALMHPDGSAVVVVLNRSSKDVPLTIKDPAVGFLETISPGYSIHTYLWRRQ
# Assay: lysed L444P fibroblasts incubated directly with test substance, lysed cell GC activity assay
# Type: biochemical
# Conditions: 0.01 to 1000 μM
# Procedure: The intact cell GC activity assay has been previously described. Briefly, cells were plated into 48-well assay plates (500 μl per well). After cell attachment, the media was replaced by media containing small molecules. Media was changed every 3 d. After incubation at 37 °C for the indicated amount of time, the intact cell GC activity assay was performed. The monolayers were washed by DPBS. The reaction was started by the addition of 150 μl of 3 mM 4-methylumbelliferyl β-D-glucopyranoside in 0.2 M acetate buffer (pH 4.0) to each well, followed by incubation at 37 °C for 1–7 h. CBE was used as a control to evaluate the extent of nonspecific GC activity. […] Liberated 4-methylumbelliferone was measured (excitation 365 nm, emission 445 nm) with a SpectraMax Gemini plate reader (Molecular Devices). The lysed cell GC activity assay has been previously described. […] Total cell protein was measured using the Micro BCA assay reagent (Pierce #23235). Thirty μg of total cell protein was assayed for the GC activity in 100 μl of 0.1 M acetate buffer (pH 5.0) containing 3 mM 4-methylumbelliferyl β-D-glucopyranoside in the presence of 0.15% Triton X-100 (v/v, Fisher) and 0.15% taurodeoxycholate (w/v, Calbiochem). CBE was used as a control to evaluate the extent of nonspecific GC activity. […] The GC activity assay for recombinant WT GC enzymes has been previously described. […]
structure (smiles),measurement,value
COc1ccc([C@@H]2Sc3ccccc3N(CCN(C)C)C(=O)[C@@H]2OC(C)=O)cc1 [diltiazem],GC inhibition in lysed L444P fibroblasts,No significant GC inhibition was observed
